# Read-outs that look alike come from different tables or passages of the source.
# B1: BMP-7: bone morphogenic protein 7, anti-EMT factor, R&D SYSTEMS catalog number 354-BP (protein, UniProt P18075 293-431, looked up)
# Bone morphogenetic protein 7: STGSKQRSQNRSKTPKNQEALRMANVAENSSSDQRQACKKHELYVSFRDLGWQDWIIAPEGYAAYYCEGECAFPLNSYMNATNHAIVQTLVHFINPETVPKPCCAPTQLNAISVLYFDDSSNVILKKYRNMVVRACGCH
# Legend:
# [1] = test system: corneal endothelial failure model (bullous keratopathy model); assay: Transplantation of cultured human corneal endothelial cells to cynomolgus monkey bullous keratopathy model (Example 9); format: in vivo
# Text: Under general anesthesia, the peripheral portion of a cornea of a cynomolgus monkey is cut by 1.5 mm, and a silicon surgical instrument is inserted into an anterior chamber to mechanically currete a corneal endothelial cell, thus creating a bullous keratopathy model. Next, of human corneal endothelial cells cultured by the method according to the present invention ex vivo, 2.0×10^5 were suspended in a basal culture medium, and a ROCK inhibitor having an adhesion promoting effect, Y-27632, was added thereto such that the final concentration would be 100 μmol/l, followed by introduction into the anterior chamber. As a control, 2.0×10^5 human corneal endothelial cells, suspended in a basal culture medium, were introduced without a ROCK inhibitor. After introduction, the model was maintained with its head down for three hours so that the eyeball would be downwards, thus promoting cellular adhesion to the corneal endothelium surface. Therapeutic effects of bullous keratopathy by transplanting a cultured corneal endothelium sheet was evaluated by corneal transparency evaluation through a slit-lamp microscope, and corneal thickness measurement using a ultrasonic tachymeter (FIG. 14). […] Then, similar to Example 2, immunostaining was performed directed to phalloidin, Na^+/K^+-ATPase and ZO-1, followed by taking images using a fluorescence microscope (FIG. 15). […]
# [2] = test system: Human corneal endothelial cells; assay: Culture of human corneal endothelial cells with SB203580 in conjunction with SB431542 (Example 7); format: cell-based; details: HCEC
# Experimental: Corneal endothelial cells were mechanically exfoliated together with basement membranes from research corneas purchased from the Seattle bank, followed by exfoliating from the basement membranes using collagenase for collection, and then primary culturing. […] In addition, culturing was performed using a base culture medium with SB431542 (1 μmol/l, TOCRIS, catalog number:1614) added thereto, with SB203580 (1 μmol/l, CALBIOCHEM, catalog number: 559389) added thereto, and with SB431542 (1 μmol/l) and SB203580 (1 μmol/l) added thereto.
# [3] = test system: Human corneal endothelial cells; details: HCEC after subculturing
# Experimental: Next, subculturing was performed with trypsin. Comparison was made between cells cultured in Opti-MEM I Reduced-Serum Medium, Liquid (INVITROGEN catalog number: 31985-070)+8% fetal bovine serum (FBS) (BIOWEST, catalog number: S1820-500)+[…] CaCl2.2H2O (SIGMA catalog number: C7902-500G)+0.08% chondroitin sulfuric acid (SIGMA catalog number: C9819-5G)+20 μg ascorbic acid (SIGMA catalog number: A4544-25G)+50 μg/ml gentamicin (INVITROGEN catalog number: 15710-064)+5 ng/ml EGF (INVITROGEN catalog number: PHG0311) as a normal culture medium, and cells cultured in the above-mentioned culture medium with Smad3 inhibitor (0.3 mM and 3 mM) added thereto.
# [4] = test system: monkey corneal endothelial cells; assay: Addition of TGF-β to monkey corneal endothelial cells: Western blot of Na+/K+-ATPase and ZO-1 (Example 4); format: cell-based, cynomolgus monkey; details: monkey CEC, TGF-β 0, 1, 3, 10, 30 ng/ml, concentration dependent
# [5] = test system: monkey corneal endothelial cells; assay: Addition of TGF-β to monkey corneal endothelial cells: cell form and immunostaining (Example 4); format: cell-based, cynomolgus monkey
# Smad2 = assay: Addition of TGF-β to monkey corneal endothelial cells: Western blot of pSmad2/Smad2 (Example 4); format: cell-based, cynomolgus monkey; details: monkey CEC, TGF-β 0, 1, 10 ng/ml
# [6] = test system: Human corneal endothelial cells; assay: Na+/K+-ATPase and ZO-1 staining of human corneal endothelial cells treated with BMP-7 (FIG. 10A C-F); format: cell-based
# Experimental: For tissue staining examination, cultured MCECs or HCECs were put into Lab-Tek™ Chamber Slides™ (NUNC A/S, Roskilde, Denmark), fixed with 4% formaldehyde for 10 minutes at a room temperature (RT), and incubated for 30 minutes with 1% bovine serum albumin (BSA). Specifically, cultured MCECs or HCECs on the Lab-Tek™ Chamber Slides™ (NUNCA/S, Roskilde, Denmark) were fixed at a room temperature for 10 minutes in 4% formaldehyde, followed by incubation for 30 minutes together with 1% bovine serum albumin (BSA). In order to examine the phenotype of CEC, immunohistochemical analysis was directed to a protein associated with tight junction, ZO-1 (Zymed Laboratories, Inc., South San Francisco, Calif.), a protein associated with the pumping function, Na^+/K^+-ATPase (Upstate Biotec, Inc., Lake Placid, N.Y.), fibronectin (BD, Franklin Lakes, N.J.), and actine. As markers associated with the function of CEC, ZO-1 and Na^+/K^+-ATPase were used; fibronectin and type 1 collagen were used to evaluate the change in a fibroblastic manner; and staining of actine was used to evaluate the phenotype of the cells. Staining of ZO-1, Na^+/K^+-ATPase, type 1 collagen and fibronectin was each performed using 1:200 dilution of ZO-1 polyclonal antibody, Na^+/K^+-ATPase monoclonal antibody, and fibronectin monoclonal antibody. As to secondary antibody, 1:2000 dilution of Alexa Fluor (registered trademark) 488 label or Alexa Fluor (registered trademark) 594 label goat antimouse IgG (Life Technologies) was used. Staining of actine was performed using 1:400 dilution of Alexa Fluor (registered trademark) 488 label phalloidin (Life Technologies). Next, the nucleus of each cell was stained with DAPI (Vector Laboratories, Inc., Burlingame, Calif.) or PI (Sigma-Aldrich). Next, the slides were observed through a fluorescence microscope (TCS SP2 AOBS; Leica Microsystems, Welzlar, Germany).
# (§1) Next, by using three different concentrations, BMP7 was able to suppress the change in a HCEC to a fibroblast phenotype and to maintain the function thereof. […] Thus, this molecule is used to antagonize an EMT process [Zeisberg M, et al. (2003) Nat Med 9: 964-968], [Simic P, et al. (2007) EMBO Rep 8: 327-331], [Buijs J T, et al. (2007) Am J Pathol 171: 1047-1057], [Zeisberg M, et al. (2007) J Biol Chem 282: 23337-23347]. […] Fibroblast-like HCEC was treated with BMP-7 in the concentration ranging from 10 to 1,000 ng/ml.
# [7] = test system: Human corneal endothelial cells; assay: Culture of human corneal endothelial cells with BMP-7: phase-contrast and phalloidin staining (Example 6); format: cell-based
# Experimental: as §1
# [8] = HCEC, three concentrations of BMP-7 vs additive-free control
# [9] = fibroblast-like HCEC, BMP-7 10 to 1,000 ng/ml
molecule,measurement,setting,value
"C[C@@H](N)[C@H]1CC[C@H](C(=O)Nc2ccncc2)CC1.Cl.Cl.O (relative stereo) [Y-27632, (R)-(+)-trans-(4-pyridyl)-4-(1-aminoethyl)-cyclohexanecarboxamide 2 hydrochloride 1 hydrate]",therapeutic result: corneal transparency (slit-lamp microscope) and corneal thickness,"[1]; 2.0×10^5 cultured human corneal endothelial cells into anterior chamber, with or without Y-27632 100 μmol/l",further improved
same,"therapeutic result: immunostaining of phalloidin, Na+/K+-ATPase and ZO-1 of extracted corneas","[1]; 2.5 months after introduction, cells alone or cells + ROCK inhibitor",further improved
"C[S+]([O-])c1ccc(-c2nc(-c3ccc(F)cc3)c(-c3ccncc3)[nH]2)cc1 (centres unmarked) [SB203580, 4-[4-(4-fluorophenyl)-2-(4-methylsulfinylphenyl)-1H-imidazole-5-yl]pyridine]",corneal endothelium density,[2]; SB203580 1 μmol/l added to SB431542 1 μmol/l,increased
same,culture normalization,"[2]; SB203580 1 μmol/l in conjunction with SB431542 1 μmol/l, repeated subculturing",culture normalization was enhanced
"COc1cc2c(cc1OC)CN(C(=O)/C=C/c1c(-c3ccccc3)n(C)c3ncccc13)CC2 [Smad3 inhibitor, 6,7-dimethoxy-2-((2E)-3-(1-methyl-2-phenyl-1H-pyrrolo[2,3-b]pyridine-3-yl-prop-2-enoyl))-1,2,3,4-tetrahydroiso quinolone]",cell form (phase-contrast microscope),[3]; Smad3 inhibitor 0.3 mM vs normal culture medium,a layer of polygonal cells with high density were maintained
same,cell form (phase-contrast microscope),[3]; Smad3 inhibitor 3 mM vs normal culture medium,a layer of polygonal cells with high density were maintained
"TGF-β: transforming growth factor-β, R&D SYSTEMS catalog number 240-B, added to induce transformation",expression of Na+/K+-ATPase and ZO-1 at the protein level (Western blot),[4],significantly decreased
same,cell form of normal phenotype after exposure to exogenous TGF-β,"[5]; monkey CEC cultured to sub-confluency, TGF-β1 0, 1, 10 ng/mL",transformed into a fibroblast-like cell
same,staining patterns of Na+/K+-ATPase and ZO-1 in plasma membranes,[5]; monkey CEC normal phenotype exposed to TGF-β,completely lost
same,phosphorylation of Smad2 (Western blot),Smad2,greatly increased in the concentration dependent form
B1,harmful effects with regard to the forms or functions,HCEC,"not seen any clear, harmful effects"
same,maintaining CEC in polygonal form and contact inhibition phenotype with positive expression of function-associated marker,"[6]; HCEC, BMP-7 10 ng/ml",tendency was seen
same,maintaining CEC in polygonal form and contact inhibition phenotype with positive expression of function-associated marker,"[6]; HCEC, BMP-7 100 ng/ml",tendency increased
same,maintaining CEC in polygonal form and contact inhibition phenotype with positive expression of function-associated marker,"[6]; HCEC, BMP-7 1,000 ng/ml",tendency was more significant
same,percentage of Na+/K+-ATPase positive cell,[6]; [8],significantly increased
same,percentage of ZO-1 positive cell,[6]; [8],significantly increased
same,intracellular localization of Na+/K+-ATPase and ZO-1,[6]; [9],maintained the intracellular localization of Na^+/K^+-ATPase and ZO-1 in a cell membrane
same,cell form (phalloidin staining and phase-contrast microscope),"[7]; HCEC subcultured in conditioned culture medium with BMP-7 100 ng/ml, control transformed, multi-layered",the form of a layer of polygonal cells was maintained
same,cell form and actine cytoskeleton distribution (phalloidin staining),[7]; [9],"allowed for a normal hexagonal cell form, and allowed for cytoskeleton distribution on the cell surface of actine"
same,elongated cell form of fibroblast phenotype (phase-contrast),"[7]; fibroblast-like HCEC, BMP-7 10 to 1,000 ng/ml, concentration-dependent manner",converted into a polygonal cell form

# Source: US20230057984A1, “NORMALIZATION OF CULTURE OF CORNEAL ENDOTHELIAL CELLS” (KYOTO PREFECTURAL PUBLIC UNIVERSITY CORPORATION, priority 2011, published 2023)
